Results taken from ChEMBL document CHEMBL4373744, “Modifying the lipophilic part of phenylthiazole antibiotics to control their drug-likeness” (Eur J Med Chem, 2020).
≈ marks a conversion by molar mass, not a printed value. Calls of active or inactive are those of the source. The calls are words filed in the database; no cut-off is given here.

Columns and labels:
[1] = test system: Staphylococcus aureus; assay: Antimicrobial activity against vancomycin-resistant Staphylococcus aureus 10 by broth liquid microdilution method; assay type: functional
[2] = test system: Staphylococcus aureus; assay: Antimicrobial activity against vancomycin-resistant Staphylococcus aureus 12 by broth liquid microdilution method; assay type: functional
[3] = test system: Escherichia coli; assay: Antimicrobial activity against Escherichia coli JW55031 harboring deltatolC mutant by broth liquid microdilution method; assay type: functional
[4] = test system: Escherichia coli; assay: Antimicrobial activity against Escherichia coli BW25113 by broth liquid microdilution method; assay type: functional
[5] = test system: Staphylococcus epidermidis; assay: Antimicrobial activity against methicillin-resistant Staphylococcus epidermidis NRS101 by broth liquid microdilution method; assay type: functional
[6] = test system: Enterococcus faecium; assay: Antimicrobial activity against vancomycin-resistant Enterococcus faecium ATCC 700221 by broth liquid microdilution method; assay type: functional
[7] = test system: Listeria monocytogenes; assay: Antimicrobial activity against Listeria monocytogenes ATCC 19111 by broth liquid microdilution method; assay type: functional
[8] = test system: Streptococcus pneumoniae; assay: Antimicrobial activity against cephalosporin-resistant Streptococcus pneumoniae ATCC 51916 by broth liquid microdilution method; assay type: functional
[9] = test system: Streptococcus pneumoniae; assay: Antimicrobial activity against methicillin-resistant Streptococcus pneumoniae ATCC 700677 by broth liquid microdilution method; assay type: functional
[10] = test system: Staphylococcus aureus; assay: Bactericidal activity against methicillin-resistant Staphylococcus aureus USA400 assessed as reduction in number of colony forming units at 5 times MIC incubated for 24 hrs by aliquots transfer to tryptic soy agar and grown for 18 to 20 hrs by Time-kill assay; assay type: functional, organism-based
[11] = test system: Staphylococcus aureus; assay: Antibiofilm activity against methicillin-resistant Staphylococcus aureus USA300 at 4 times MIC incubated for 24 hrs by crystal violet staining based assay relative to control; assay type: functional
[12] = test system: Staphylococcus aureus; assay: Antibiofilm activity against methicillin-resistant Staphylococcus aureus USA300 at 2 times MIC incubated for 24 hrs by crystal violet staining based assay relative to control; assay type: functional
[13] = test system: Staphylococcus aureus; assay: Antibiofilm activity against methicillin-resistant Staphylococcus aureus USA300 incubated for 24 hrs by crystal violet staining based assay; assay type: functional, organism-based
[14] = test system: Staphylococcus aureus; assay: Bactericidal activity against methicillin-resistant Staphylococcus aureus USA400 assessed as 3 log reduction in number of colony forming units at 5 times MIC incubated for 10 hrs by aliquots transfer to tryptic soy agar and grown for 18 to 20 hrs by Time-kill assay relative to control; assay type: functional; design: scale not given: the % may be the effect or the level left
[15] = test system: Staphylococcus aureus; assay: microbe, parasite or virus in culture; details: ATCC 6538
Description: Antimicrobial activity against methicillin-sensitive Staphylococcus aureus ATCC 6538 by broth liquid microdilution method

[16] = test system: Staphylococcus aureus; assay: microbe, parasite or virus in culture; details: NRS 107
Description: Antimicrobial activity against methicillin-sensitive Staphylococcus aureus NRS 107 by broth liquid microdilution method

[17] = test system: Staphylococcus aureus; assay: microbe, parasite or virus in culture; details: NRS119
Description: Antimicrobial activity against methicillin-resistant Staphylococcus aureus NRS119 by broth liquid microdilution method

[18] = test system: Staphylococcus aureus; assay: microbe, parasite or virus in culture; details: NRS123
Description: Antimicrobial activity against methicillin-resistant Staphylococcus aureus NRS123 by broth liquid microdilution method

[19] = test system: Staphylococcus aureus; assay: microbe, parasite or virus in culture; details: NRS384
Description: Antimicrobial activity against methicillin-resistant Staphylococcus aureus NRS384 by broth liquid microdilution method

[20] = test system: Staphylococcus aureus; assay: microbe, parasite or virus in culture; details: NRS 385
Description: Antimicrobial activity against methicillin-resistant Staphylococcus aureus NRS 385 by broth liquid microdilution method

[21] = test system: Staphylococcus aureus; assay: microbe, parasite or virus in culture; details: NRS 386
Description: Antimicrobial activity against methicillin-resistant Staphylococcus aureus NRS 386 by broth liquid microdilution method

[22] = test system: Enterococcus faecalis; assay: microbe, parasite or virus in culture; details: ATCC 51299
[23] = test system: Caco-2; assay: Cytotoxicity against human Caco2 cells assessed as reduction in cell viability at 64 ug/ml by MTS assay relative to control

Compound: C/C(=N\NC(=N)N)c1sc(-c2ccc(C#CCCn3ccnc3)cc2)nc1C
- MBC [1]: 8 µg/mL (≈ 20.4 µM)
- MIC [1]: 4 µg/mL (≈ 10.2 µM)
- MBC [2]: 16 µg/mL (≈ 40.9 µM)
- MIC [2]: 4 µg/mL (≈ 10.2 µM)
- MIC [3]: 16 µg/mL (≈ 40.9 µM)
- MIC [4]: > 64 µg/mL
- MBC [5]: 16 µg/mL (≈ 40.9 µM)
- MIC [5]: 4 µg/mL (≈ 10.2 µM)
- MBC [6]: 16 µg/mL (≈ 40.9 µM)
- MIC [6]: 4 µg/mL (≈ 10.2 µM)
- MBC [7]: 32 µg/mL (≈ 81.7 µM)
- MIC [7]: 8 µg/mL (≈ 20.4 µM)
- MBC [8]: 16 µg/mL (≈ 40.9 µM)
- MIC [8]: 8 µg/mL (≈ 20.4 µM)
- MBC [9]: 16 µg/mL (≈ 40.9 µM)
- MIC [9]: 4 µg/mL (≈ 10.2 µM)
- Activity [10]: Active
- Activity [11]: 81%
- Activity [12]: 65%
- Activity [13]: Dose-dependent effect
- Activity [14]: 99.9%
- MBC [15]: 16 µg/mL (≈ 40.9 µM)
- MIC [15]: 4 µg/mL (≈ 10.2 µM)
- MBC [16]: 8 µg/mL (≈ 20.4 µM)
- MIC [16]: 4 µg/mL (≈ 10.2 µM)
- MBC [17]: 32 µg/mL (≈ 81.7 µM)
- MIC [17]: 8 µg/mL (≈ 20.4 µM)
- MBC [18]: 8 µg/mL (≈ 20.4 µM)
- MIC [18]: 4 µg/mL (≈ 10.2 µM)
- MBC [19]: 16 µg/mL (≈ 40.9 µM)
- MIC [19]: 4 µg/mL (≈ 10.2 µM)
- MBC [20]: 16 µg/mL (≈ 40.9 µM)
- MIC [20]: 4 µg/mL (≈ 10.2 µM)
- MBC [21]: 16 µg/mL (≈ 40.9 µM)
- MIC [21]: 4 µg/mL (≈ 10.2 µM)
- MBC [22]: 32 µg/mL (≈ 81.7 µM)
- MIC [22]: 8 µg/mL (≈ 20.4 µM)
- Activity [23]: 70%
